According to patent publication US9150902B2, “Method for determination of N-deacetylase/N-sulfotransferase activity” (SEIKAGAKU CORPORATION, priority 2005, dated 2015):

Key:
[1] = target: T1, NDST2 (ND activity) (Homo sapiens, UniProt P52849); experiment: Screening of ND activity inhibitors using the plate to which NAH-biotin was adhered via avidin (JM403 ELISA); type: biochemical; settings: final concentration 100, 10 or 1 μg/ml; for function to inhibit ND activity (rate of change, FIG. 8): NDST enzyme liquid 80 times diluted, 37° C. 60 minutes; for ranking of ability to inhibit ND activity among NAH, HP, NSDS-HP and HSBK: FIG. 8
T1 construct: baculovirus gp67 signal peptide (39 amino acids) (N, cleaved yes); made in house; host or cells: Sf21 insect cells infected with recombinant baculovirus (virus stock made in Sf9)
T1 sequence (P52849 79-883): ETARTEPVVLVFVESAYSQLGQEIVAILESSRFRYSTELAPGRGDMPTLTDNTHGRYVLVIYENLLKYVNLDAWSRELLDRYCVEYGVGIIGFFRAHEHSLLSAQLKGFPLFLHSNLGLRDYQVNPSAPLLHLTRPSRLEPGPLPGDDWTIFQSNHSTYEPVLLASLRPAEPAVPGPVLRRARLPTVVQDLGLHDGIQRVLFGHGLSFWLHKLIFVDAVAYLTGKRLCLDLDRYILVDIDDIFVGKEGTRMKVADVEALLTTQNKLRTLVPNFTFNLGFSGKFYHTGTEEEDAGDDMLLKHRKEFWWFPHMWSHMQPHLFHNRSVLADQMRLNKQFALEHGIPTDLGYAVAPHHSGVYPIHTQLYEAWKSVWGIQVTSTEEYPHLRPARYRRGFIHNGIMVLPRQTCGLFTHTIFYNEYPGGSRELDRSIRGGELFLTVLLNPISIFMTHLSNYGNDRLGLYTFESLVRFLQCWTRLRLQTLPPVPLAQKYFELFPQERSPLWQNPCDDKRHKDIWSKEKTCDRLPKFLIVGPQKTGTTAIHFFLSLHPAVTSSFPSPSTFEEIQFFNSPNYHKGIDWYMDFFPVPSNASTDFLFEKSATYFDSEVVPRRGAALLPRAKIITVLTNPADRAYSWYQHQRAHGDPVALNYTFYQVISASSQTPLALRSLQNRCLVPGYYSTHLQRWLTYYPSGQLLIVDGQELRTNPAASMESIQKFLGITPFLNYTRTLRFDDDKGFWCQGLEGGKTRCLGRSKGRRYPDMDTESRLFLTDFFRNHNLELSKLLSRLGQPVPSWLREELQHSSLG
Protocol: Each of the following 6 substances to be tested was diluted to 200, 20 or 2 μg/ml using the enzyme reaction liquid 1. Quickly after addition of 25 μl of the solutions to each well of the solid phase (plate) produced in Example 9, 25 μl of an “NDST enzyme liquid diluted 40 times with the enzyme reaction liquid I” was added to each well (final concentration of each substance to be tested 100, 10 or 1 μg/ml, final dilution rate of the enzyme liquid 80 times).
Thereafter, the enzyme reaction was effected by standing still at 37° C. for 60 minutes. In this connection, the enzyme reaction liquid 1 alone was added to the wells to which the substances to be tested were not added.
After completion of the reaction, the wells were washed three times with T-TBS and 100 μl of a solution of the monoclonal antibody JM403 (Seikagaku Corporation) adjusted to 1 μg/ml with TBS was added to each well. Thereafter, the plate was allowed to stand still at ordinary temperature (15 to 25° C.) for 60 minutes to undergo the antigen-antibody reaction. After the reaction, the wells were washed three times with T-TBS, and 100 μl of the HRP-labeled goat anti-mouse immunoglobulin G+M antibody diluted 20000 times with TBS was added to each well. Thereafter, the plate was allowed to stand still at ordinary temperature for 60 minutes to undergo the antigen-antibody reaction.
After the reaction, this plate was washed three times with T-TBS, and 100 μl of the TMB solution was added to each well and allowed to undergo the reaction at ordinary temperature for 30 minutes to develop a color. Thereafter, the reaction was terminated by adding 100 μl of the reaction terminating liquid to each well, and then the absorbance was measured by the same method described in Example 5. Also, the rate of change (%) was calculated by the following calculation formula. Rate of change(%)=100×((the value of absorbance when each substance to be tested is not added)−(the value of absorbance when each substance to be tested at respective concentration is added))/(the value of absorbance when each substance to be tested is not added).
In this connection, since the monoclonal antibody JM403 binds to the GlcN residues in NAH (that is, de-N-acetylated GlcNAc residue), higher value of the detected absorbance means that the number of GlcN residues in NAH is larger (that is, the number of de-N-acetylated GlcNAc residues is larger), namely the ND activity is higher. On the contrary, lower value of the detected absorbance means that the number of GlcN residues in NAH is smaller (that is, the number of de-N-acetylated GlcNAc residues is smaller), namely the ND activity is low.
Additionally, when a substance to be tested inhibits ND activity, the aforementioned rate of change (%) becomes a positive number. Also, higher value of the rate of change means higher ability of the substance to be tested to inhibit ND.

[2] = test system: monoclonal antibody F58-10E4; experiment: Inhibition method: monoclonal antibody F58-10E4 binding to HSBK-adhered plate in presence of N-sulfated heparosan; settings: 20 μg/well; F58-10E4 1 μg/mL; lot as prepared
Protocol: A polysaccharide in which biotin is bound to the reducing end of HSBK was prepared using HSBK instead of NAH and in accordance with the method described in Example 1(3). Next, this was adhered to a plate in accordance with the method described in Example 9.
The monoclonal antibody F58-10E4 (final concentration: 1 μg/mL) and the 9 lots of N-sulfated heparosan (20 μg/well; a value corrected based on the uronic acid content obtained by the carbazole method) were added to the plate to which HSBK was adhered to effect the antigen-antibody reaction under the conditions described in Example 7, and the absorbance was measured by the method described in Example 7. This is a measurement by a so-called inhibition method. When concentration of the N-sulfated heparosan in the antigen-antibody reaction liquid is 0, substantially all of the monoclonal antibody F58-10E4 binds to the adhered HSBK and the detected absorbance becomes high.
By regarding the absorbance when concentration of the N-sulfated heparosan in the antigen-antibody reaction liquid is 0 as “inhibition rate 0%”, and the absorbance when excess concentration of N-sulfated heparosan is present in the antigen-antibody reaction liquid as “inhibition rate 100%”, the inhibition ratio was calculated on the 9 lots of N-sulfated heparosan. […]
The inhibition rates of these substances were also calculated in the same manner. […]

Substance	function to inhibit ND activity (rate of change, FIG. 8) [1]	ranking of ability to inhibit ND activity among NAH, HP, NSDS-HP and HSBK [1]	Inhibition rate (%) No treatment [2] [%]
Cockscomb-derived hyaluronic acid [HA]	hardly possessed of the function to inhibit ND activity	–	–
Bovine kidney-derived HS [HSBK]	inhibit ND activity concentration-dependently	highest ability to inhibit ND activity	99
N-sulfated/completely de-O-sulfated HP [NSDS-HP]	inhibit ND activity concentration-dependently	–	–
Partially de-N-acetylated NAH [PDNAC-NAH]	hardly possessed of the function to inhibit ND activity	–	–
N-acetyl heparosan [NAH]	inhibit ND activity concentration-dependently	lowest ability to inhibit ND activity	–
Swine small intestine-derived HP	inhibit ND activity concentration-dependently	–	–
